The results in this text go back to patent publication US11389536B2 (priority 2015, dated 2022).

The structures appear in SMILES notation. Read-outs that look alike come from different tables or passages of the source.

For data set [1], the system named is non-tumor-bearing athymic nude mice. How it is done: Non-tumor-bearing athymic nude mice were exposed to fractionated doses of 30 Gy radiation (weekly administration of 5 Gy) in the presence or absence of twice weekly intravenous (i.v.) injections of Ce02 or intraperitoneal (i.p.) injections of Amifostine 30 min prior to radiation. Amifostine is a free radical scavenger. […] Treatments continued for […] for a total dose of 30 Gy radiation. The mice were killed and necropsied only when they became moribund or the experiment was terminated. The weight and mortality of each mouse was measured throughout the experiment and median and percent survival was determined, as shown in FIG. 22E.

Data set [2] concerns lungs of athymic nude mice. Briefly: Lung histology for radiation-induced pneumonitis and fibrosis (H&E, Masson's trichrome). The data set is classed as in vivo. The settings on record: irradiated lungs. On the procedure: For the in vivo studies, athymic nude mice are housed in the specific pathogen-free (SPF) Cancer Research Institute animal facility which exceeds the national requirements for animal care, with two conventional mouse rooms, two nude mouse rooms, and one quarantine room. Radiation was administered using an IC160 X-ray cell culture and small animal irradiation system (Kimtron Inc., Woodbury, Conn., USA) located inside the animal facility. Nine weeks post radiation, the mice were sacrificed and the lungs were harvested and processed for hematoxylin and eosin (H&E) staining. For immunohistochemistry and hematoxylin and eosin-staining procedures, one part of the tumor tissue is formalin-fixed and paraffin-embedded and another part embedded in OCT compound (Miles, Inc., Elkhart, Ind.), rapidly frozen in liquid nitrogen, and stored at […] for sectioning. Immunofluorescence microscopy is performed using a 20× objective on an epifluorescence microscope equipped with narrow bandpass excitation filters mounted in a filter wheel (Ludl Electronic Products, Hawthorne, N.Y.).
To determine the degree of radiation-induced pneumonitis, the lungs were harvested and processed for histology and H&E staining (FIGS. 23A-23D) and the amount of fibrosis and collagen deposition, indicative of chronic lung conditions, was measured using Masson's trichrome stain (FIGS. 23E-23H).

Regarding `NCCCNCCSP(=O)(O)O` [Amifostine], the median survival time was 119 days in data set [1] (agent alone, no radiation (Amifostine 150 mg/kg i.p.)) and 81 days in data set [1] (combination with radiation (5 Gy fractions, total 30 Gy), CONPs 15 nM i.v. twice weekly, Amifostine i.p. 30 min prior to radiation). For the same compound, in data set [1] (athymic nude mice), the “tolerability / toxicity to mice” value was “highly toxic to the mice”. Besides, in data set [2], the “fibrosis and collagen deposition (Masson's Trichrome stain)” value is “fibrosis and collagen deposition were common”.
